# Measurements from ChEMBL document CHEMBL3868595, “Plazomicin is effective in a non-human primate pneumonic plague model” (Bioorg Med Chem, 2016).
# What was measured:
# [1] = test system: Yersinia pestis; assay: Antibacterial activity against Yersinia pestis Colorado 92 infected in African green monkey B6873 model assessed as bacterial burden in lung at 12.5 mg/kg, iv administered within 6 hrs post onset of sustained fever as 30 mins infusion for 5 days (reference value: 7.7 10^8CFU/g); assay type: functional, CO92
# [2] = Cmax in African green monkey blood at 35 mg/kg administered as iv infusion twice daily for 7 consecutive days measured on day 7 by LC-MS/MS analysis; assay type: ADME, organism-based; set-up: dose 35 mg/kg, route intravenous; conditions: chlorocebus aethiops
# [3] = AUC (0 to 24 hrs) in African green monkey blood at 25 mg/kg administered as iv infusion twice daily for 7 consecutive days measured on day 1 by LC-MS/MS analysis; assay type: ADME, organism-based; set-up: dose 25 mg/kg, time < 24 hr, route intravenous; conditions: chlorocebus aethiops
# [4] = AUC (0 to 24 hrs) in African green monkey blood at 35 mg/kg administered as iv infusion twice daily for 7 consecutive days measured on day 7 by LC-MS/MS analysis; assay type: ADME, organism-based; set-up: time < 24 hr, dose 35 mg/kg, route intravenous; conditions: chlorocebus aethiops
# [5] = test system: Yersinia pestis; assay: Antibacterial activity against Yersinia pestis Colorado 92 infected in African green monkey assessed as survival of monkey at 12.5 mg/kg, iv administered within 6 hrs post onset of sustained fever as 30 mins infusion for 5 days; assay type: functional; conditions: CO92, iv
# [6] = test system: Yersinia pestis; assay: Antibacterial activity against Yersinia pestis Colorado 92 infected in African green monkey B6672 model assessed as bacterial burden in lung at 12.5 mg/kg, iv administered within 6 hrs post onset of sustained fever as 30 mins infusion for 5 days (reference value: 7.7 10^8CFU/g); assay type: functional, CO92
# [7] = test system: Yersinia pestis; assay: Antibacterial activity against Yersinia pestis Colorado 92 infected in African green monkey B6889 model assessed as bacterial burden in lung at 6.25 mg/kg, iv administered within 6 hrs post onset of sustained fever as 30 mins infusion for 5 days (reference value: 7.7 10^8CFU/g); assay type: functional, CO92
# [8] = test system: Yersinia pestis; assay: Antibacterial activity against Yersinia pestis Colorado 92 infected in African green monkey B6872 model assessed as bacterial burden in spleen at 25 mg/kg, iv administered within 6 hrs post onset of sustained fever as 30 mins infusion for 5 days (reference value: 1.6 10^9CFU/g); assay type: functional, organism-based; conditions: CO92
# [9] = test system: Yersinia pestis; assay: (§1) Antibacterial activity against Yersinia pestis Colorado 92 infected in African green monkey B6127 model assessed as bacterial burden in spleen at 25 mg/kg, iv administered within 6 hrs post onset of sustained fever as 30 mins infusion for 10 days (reference value: 1.6 10^9CFU/g); assay type: functional, organism-based; conditions: CO92
# [10] = test system: Yersinia pestis; assay: Antibacterial activity against Yersinia pestis Colorado 92 infected in African green monkey 8047 model assessed as bacterial burden in spleen at 6.25 mg/kg, iv administered within 6 hrs post onset of sustained fever as 30 mins infusion for 10 days (reference value: 1.6 10^9CFU/g); assay type: functional, CO92
# [11] = test system: Yersinia pestis; assay: Antibacterial activity against Yersinia pestis Colorado 92 infected in African green monkey B6436 model assessed as bacterial burden in liver at 25 mg/kg, iv administered within 6 hrs post onset of sustained fever as 30 mins infusion for 5 days (reference value: 5.2 10^8CFU/g); assay type: functional, organism-based; conditions: CO92
# [12] = test system: Yersinia pestis; assay: Antibacterial activity against Yersinia pestis Colorado 92 infected in African green monkey B6783 model assessed as bacterial burden in liver at 12.5 mg/kg, iv administered within 6 hrs post onset of sustained fever as 30 mins infusion for 5 days (reference value: 5.2 10^8CFU/g); assay type: functional, CO92
# [13] = test system: Yersinia pestis; assay: Antibacterial activity against Yersinia pestis Colorado 92 infected in African green monkey B6889 model assessed as bacterial burden in liver at 6.25 mg/kg, iv administered within 6 hrs post onset of sustained fever as 30 mins infusion for 5 days (reference value: 5.2 10^8CFU/g); assay type: functional, CO92
# [14] = test system: Yersinia pestis; assay: Antibacterial activity against Yersinia pestis Colorado 92 infected in African green monkey 8047 model assessed as bacterial burden in liver at 6.25 mg/kg, iv administered within 6 hrs post onset of sustained fever as 30 mins infusion for 10 days (reference value: 5.2 10^8CFU/g); assay type: functional, CO92
# [15] = test system: Yersinia pestis; assay: Antibacterial activity against Yersinia pestis Colorado 92 infected in African green monkey B6672 model assessed as bacterial burden in kidney at 12.5 mg/kg, iv administered within 6 hrs post onset of sustained fever as 30 mins infusion for 5 days (reference value: 7.1 10^7CFU/g); assay type: functional, CO92
# [16] = test system: Yersinia pestis; assay: Antibacterial activity against Yersinia pestis Colorado 92 infected in African green monkey C2149 model assessed as bacterial burden in kidney at 6.25 mg/kg, iv administered within 6 hrs post onset of sustained fever as 30 mins infusion for 5 days (reference value: 7.1 10^7CFU/g); assay type: functional, CO92
# [17] = test system: Yersinia pestis; assay: as §1, with “tracheobronchial lymph nodes” for “spleen”, “7.7” for “1.6”; assay type: functional, organism-based; conditions: CO92, Lymph node
# [18] = test system: Yersinia pestis; assay: Antibacterial activity against Yersinia pestis Colorado 92 infected in African green monkey B6960 model assessed as bacterial burden in heart at 6.25 mg/kg, iv administered within 6 hrs post onset of sustained fever as 30 mins infusion for 5 days (reference value: 2.6 10^7CFU/g); assay type: functional, CO92
# [19] = test system: Yersinia pestis; assay: Antibacterial activity against Yersinia pestis Colorado 92 infected in African green monkey B6988 model assessed as bacterial burden in brain at 6.25 mg/kg, iv administered within 6 hrs post onset of sustained fever as 30 mins infusion for 5 days (reference value: 1.9 10^6CFU/g); assay type: functional, CO92
# [20] = test system: African green monkey; assay: Toxicity in African green monkey 7972 model infected with Yersinia pestis Colorado 92 assessed as blood urea nitrogen level at 25 mg/kg, iv administered within 6 hrs post onset of sustained fever as 30 mins infusion for 10 days (reference value: 13 mg/dl); assay type: organism-based; conditions: chlorocebus sabaeus, in vivo
# [21] = test system: African green monkey; assay: Toxicity in African green monkey 8067 model infected with Yersinia pestis Colorado 92 assessed as serum creatinine level at 25 mg/kg, iv administered within 6 hrs post onset of sustained fever as 30 mins infusion for 10 days (reference value: 0.8 mg/dl); assay type: organism-based; conditions: chlorocebus sabaeus, in vivo
# [22] = test system: African green monkey; assay: Toxicity in African green monkey 7643 model infected with Yersinia pestis Colorado 92 assessed as serum creatinine level at 25 mg/kg, iv administered within 6 hrs post onset of sustained fever as 30 mins infusion for 10 days (reference value: 0.5 mg/dl); assay type: organism-based; conditions: chlorocebus sabaeus, in vivo
# [23] = test system: African green monkey; assay: Toxicity in African green monkey B5994 model infected with Yersinia pestis Colorado 92 assessed as serum gamma glutamyl-transferase level at 25 mg/kg, iv administered within 6 hrs post onset of sustained fever as 30 mins infusion for 10 days (reference value: 35 IU/L); assay type: organism-based; conditions: chlorocebus sabaeus, in vivo
# [24] = test system: African green monkey; assay: Toxicity in African green monkey B6291 model infected with Yersinia pestis Colorado 92 assessed as serum gamma glutamyl-transferase level at 25 mg/kg, iv administered within 6 hrs post onset of sustained fever as 30 mins infusion for 10 days (reference value: 77 IU/L); assay type: organism-based; conditions: chlorocebus sabaeus, in vivo
# [25] = test system: African green monkey; assay: Toxicity in African green monkey 7929 model infected with Yersinia pestis Colorado 92 assessed as serum gamma glutamyl-transferase level at 25 mg/kg, iv administered within 6 hrs post onset of sustained fever as 30 mins infusion for 10 days (reference value: 44 IU/L); assay type: organism-based; conditions: chlorocebus sabaeus, in vivo
# [26] = test system: African green monkey; assay: Toxicity in African green monkey B6140 model infected with Yersinia pestis Colorado 92 assessed as serum alanine aminotransferase level at 25 mg/kg, iv administered within 6 hrs post onset of sustained fever as 30 mins infusion for 10 days (reference value: 180 IU/L); assay type: organism-based; conditions: chlorocebus sabaeus, in vivo
smiles,measurement,setting,value
CN[C@@H]1[C@@H](O)[C@@H](O[C@@H]2[C@@H](O)[C@H](O[C@H]3OC(CNCCO)=CC[C@H]3N)[C@@H](N)C[C@H]2NC(=O)[C@@H](O)CCN)OC[C@]1(C)O [PLAZOMICIN],Activity,[1],16 CFU/g
same,Cmax,[2],185 µg/mL
same,AUC(0-t) at 24 h,[3],185 µg·h/mL
same,AUC at 24 h,[4],319 µg·h/mL
same,survival at 12.5 mg/kg,[5],33%
same,Activity,[6],9.2 ×10⁹ CFU/g
same,Activity,[7],2.2 ×10⁹ CFU/g
same,Activity,[8],Below limit of detection
same,Activity,[9],Below limit of detection
same,Activity,[10],19 CFU/g
same,Activity,[11],Below limit of detection
same,Activity,[12],8.4 ×10⁶ CFU/g
same,Activity,[13],2.2 ×10⁷ CFU/g
same,Activity,[14],1.3 ×10⁶ CFU/g
same,Activity,[15],25 CFU/g
same,Activity,[16],16 CFU/g
same,Activity,[17],Below limit of detection
same,Activity,[18],1.2 ×10⁶ CFU/g
same,Activity,[19],11 CFU/g
same,Activity,[20],24 mg/dL
same,Activity,[21],0.8 mg/dL
same,Activity,[22],0.4 mg/dL
same,Activity,[23],38 IU/L
same,Activity,[24],102 IU/L
same,Activity,[25],16 IU/L
same,Activity,[26],71 IU/L
